Results: patent US9169223B2, “Functionalised antifouling compounds and use thereof” (Agency for Science, Technology and Research, priority 2010, dated 2015)
Converted amounts (≈) assume the structure as drawn.

Tests used:
[1] = Observation on standing (note in characterisation); type: physicochemical; details: HRMS consistent with free alcohol
Protocol: To a round bottomed flask containing DMAP (2 mg) was added a solution of 2-(4-hydroxymethyl)phenyl-1-(piperidin-1-yl)hexanone (30 mg, 0.10 mmol) in dry dichloromethane (2 mL). To the resulting mixture was added dry NEt3 (208 μL, 1.5 mmol) followed by acetic anhydride (100 μL, 1.0 mmol). The resulting mixture was allowed to stir for 3 hours. After this time, the reaction mixture was washed with saturated NaHCO3, water and then brine and the organic phase was dried (Na2SO4) and concentrated under reduced pressure. The title compound was obtained as a colourless oil (20 mg, 60%) following purification by flash column chromatography (50% EtOAc in hexane, Rf=0.7). ^1H NMR (400 MHz, CDCl3) δ 0.86 (t, J=7 Hz, 3H); 1.0-1.2 (2×m, 2H); 1.2-1.5 (multiple signals, 8H); 1.68 (m, 1H); 4.53 (m+s, 4H); 3.33 (m, 1H), 3.39 (m, 1H); 3.49 (m, 1H); 3.60 (m, 1H); 3.70 (t, J=7 Hz, 1H); 5.07 (s, 2H); 7.72 (m, 4H). ^13C NMR (75 MHz, CDCl3) δ14.01, 21.08, 22.72, 24.57, 25.60, 26.20, 30.09, 34.77, 43.20, 46.66, 48.38, 66.07, 128.03, 128.58, 134.24, 141.02, 171.09, 171.17.
To a round bottomed flask containing DMAP (2 mg) was added a solution of 2-(4-hydroxymethyl)phenyl-1-(piperidin-1-yl)hexanone (30 mg, 0.10 mmol) in dry CH2Cl2 (2 mL). To the resulting mixture was added dry NEt3 ([…], 1.5 mmol) followed by acetic anhydride (100 μL, 1.0 mmol). The resulting mixture was allowed to stir for 3 hours. […]

barnacle cyprids = experiment: Settlement assay with barnacle cyprids; type: in vivo, Amphibalanus amphitrite
Protocol: (§1) Biological assays were conducted with larval barnacles. Barnacles are dominant and tenacious members of marine fouling communities, and often serve as a substrate for less resistant organisms. Therefore, historically they have been used as a model organism for antifouling studies. To determine the biological response of larvae to test compounds, two bioassays were performed: settlement (using settlement stage cyprids), and toxicity (using nauplii).
(§2) Stock solutions of each compound were made at 50 mg/ml. Pure compounds were diluted in DMSO and sonicated. Stock solutions were stored at −20° C. in 4 ml amber screw cap vials until use. For bioassays, a small amount of stock solution was diluted in 1 μm filtered seawater (in a glass scintillation vial). The solution was then sonicated for 10 minutes. To obtain the desired concentration range, serial dilutions of the test solution were made. As control, a serial dilution of the equivalent amounts of DMSO in seawater was used.
Nauplii were cultured as described above, and then reared at 25° C. on an algal mixture of 1:1 v/v of Tetraselmis suecica and Chaetoceros muelleri (approximately density 5×10^5 cells per ml). Under these conditions, nauplii typically metamorphose to cyprids in 5 days. Cyprids were aged at 4° C. for 2 days.
Settlement assays were conducted in 7 ml neutral glass vials (Samco® T103/V1; 34×23 mm diameter). For assays, each solution was made at twice the desired final concentration; 0.5 ml of this solution was transferred to vials. To each vial, cyprids were added by transferring 0.5 ml filtered seawater containing 20-40 aged cyprids. As in toxicity assays: each compound at each concentration was run in triplicate with cyprids from a single batch; two controls (filtered seawater and DMSO) were run along with each assays; and the overall assay was conducted twice, using two different batches of cyprids.
Assays were conducted for 24 hours, after which time the number of settled cyprids, the number of free swimming (unsettled) cyprids, and the number of dead cyprids were counted for each vial. Both metamorphosed, juvenile barnacles and cyprids that had committed to settlement (glued themselves to the vial), but had not yet metamorphosed, were counted as ‘settled’. Data was expressed as percent settlement. […] If ED50 could not be calculated using probit analysis, values were extrapolated based on plotted data.

[2] = system: stage II naupliar larvae of the barnacle Amphibalanus amphitrite; experiment: Toxicity assay with barnacle nauplii; type: in vivo; details: Amphibalanus amphitrite (barnacle), stage II naupliar larvae, in vivo
Protocol: as §1, with “nauplii). Procedures followed methods standard in the field, which were first described by Rittschof et al. (1992).” for “nauplii).”
as §2
Toxicity assays employed stage II naupliar larvae of the barnacle Amphibalanus amphitrite (previously Balanus amphitrite: Pitombo, 2004). Assay procedures were modified from Rittschof et al. (1992). Adult A. amphitrite were collected from inter-tidal areas near the Kranji mangrove, Singapore. Larval culture was based on Rittschof et al. (1984). Following collection, nauplii were concentrated for use in bioassays by placing a fiber optic light source at one side of the container, and pipetting from the resulting dense cloud of nauplii.
In order to determine LD50 values for each compound, compounds were tested over a range of concentrations between 0-50 μg/ml. For each assay, each compound at each concentration was tested in triplicate with a single batch of nauplii. The overall assay was conducted twice, using two different batches of nauplii. Two controls were run along with each assay (in triplicate): filtered seawater only, and DMSO at […] (since DMSO was used as a solvent for test compounds, this concentration is equivalent to the concentration of DMSO in the highest test compound concentration).
For assays, approximately 20 nauplii (in 50 μl filtered seawater) were added to 1 ml test solution or control, in a 2 ml glass vial (La Pha Pack® PN 11-14-0544). Assays were run for 22-24 hours at 25-27° C. After this time, living and dead nauplii were counted using a Bogorov tray. Nauplii that were approaching death were scored as dead. Data for all assays was combined and LD50 was calculated (where possible) using a probit analysis (Libermann, 1983). If LD50 could not be calculated using probit analysis, values were extrapolated based on plotted data.

CCCCC(C(=O)N1CCCCC1)c1ccc(COC(C)=O)cc1 (stereo not shown) [Compound 16.3, 2-(4-acetoxymethyl)phenyl-1-(piperidin-1-yl)hexanone]
stability on standing [1]: hydrolyses on standing
IC50 (barnacle cyprids; Amphibalanus amphitrite, 24 h, anti-settlement, barnacle cyprids, 24 hours, concentration causing 50% reduction in settlement vs controls, read-out: ED50 (the source's name)): 6.35 µg/mL (≈ 19.2 µM)
TR (LD50/ED50) (barnacle cyprids; therapeutic ratio, LD50 (nauplii) / ED50 (cyprids)): >7.87
LD50 [2]: >50 µg/mL
